For twelve compounds, TGI and GI50 results are on record in PubChem BioAssay (NCI).

What all share (assay): NCI anticancer screen, dose series, 48 h
Assay [1] has as its system DLD-1 colon.
The test system of assay [2] is DMS 273 small cell lung.
Assay [3] concerns HCT-15 colon.
Assay [4] concerns HL-60(TB) leukemia.
The test system of assay [5] is OVCAR-4 ovarian.
In assay [6] the test system is RPMI-8226 leukemia.
Assay [7] concerns SF-268 CNS.
For assay [8], the system named is UACC-257 melanoma.
The test system of assay [9] is HOP-92 NSCLC.
In assay [10] the test system is MDA-MB-231 breast.

Molecules are shown by their SMILES.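 Test compounds were applied to cells in 96-well plates for 48 hours at 5 doses. Abbreviation: GI50, concentration required for 50% inhibition of growth. TGI denotes the concentration required for complete inhibition of growth.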

`O=C1c2ccccc2C(=O)N1C/C=N/NS(=O)(=O)c1cccc([N+](=O)[O-])c1`: the TGI in [1], in assay [2], in assay [3], in assay [4], in assay [5] and in [6] was above 100 µM each time. For the same compound, the TGI in [7] and in [8] was above 100 µM in each case.

`O=c1c2ccccc2c(=O)n2n1-c1cccc(c1)CSSCc1cccc-2c1`: the GI50 in assay [1], in [2], in assay [3], in [5], in [6] and in [7] was above 100 µM each time. Also, the TGI in assay [1], in assay [2], in [3], in [5], in [6] and in [7] was above 100 µM throughout.

For the compound `CCC(=O)N1C(=S)SC[C@H]1C(=O)OC`, the TGI in [1], in assay [2], in assay [4], in assay [9], in [5] and in [7] was above 100 µM each time. This compound yielded a TGI in [8] above 100 µM.

With `Cc1cc(C)c2c(c1)CSCc1cc(C)cc(C)c1-2`, the TGI in [1] is above 100 µM; in assay [2], above 100 µM; in [3] it was above 100 µM; in [4], 43.3 µM; in [5], above 100 µM; in assay [6] it was 56.4 µM. Further, the values for the TGI in assay [7] and in [8] were above 100 µM and 74.1 µM, respectively.

Consider `CCOc1ccc2c(c1)[n+]([O-])c(C(N)=O)c(N)[n+]2[O-]`, for which the TGI in assay [1], in assay [2], in assay [4], in assay [9], in assay [5] and in assay [7] was above 100 µM in each case. Further, the TGI in assay [8] was above 100 µM.

With `CCN(CC)C(=O)c1cccc2c(OC)ccc(OC)c12`, the TGI in assay [1], in [2], in assay [3], in assay [4], in assay [5] and in assay [6] was above 100 µM each time. The TGI in [7] and in assay [8] was above 100 µM in each case.

On to `O=C1C2C3SC(c4cc5ccccc5cc43)C2C(=O)N1c1ccccc1` (stereo not given), for which the TGI in [2], in [3], in assay [4], in assay [9], in [5] and in assay [6] was above 100 µM in each case. The TGI in assay [7] and in assay [8] was above 100 µM in each case.

As to `NCCNCCNCc1c2ccccc2c(CNCCNCCN)c2ccccc12`, the TGI in [1] was above 100 µM; in assay [3] it was above 100 µM; in assay [4] it was above 100 µM; in [9], 84.1 µM; in assay [5], above 100 µM; in assay [6], above 100 µM. The TGI in assay [7] and in assay [8] was above 100 µM each time.

`CCOc1ccc2c(c1)[n+]([O-])c(-c1ccccc1)c(N)[n+]2[O-]`: the TGI in assay [1], in assay [2], in assay [3], in assay [4], in assay [5] and in assay [6] was above 100 µM each time. The TGI in [7] and in assay [8] was above 100 µM throughout.

Take `CCOP(=O)(OCC)C(C(=O)OC)C(=O)C(=O)Nc1cccc([N+](=O)[O-])c1` (stereo not given): the TGI in [1], in [2], in assay [3], in [4], in assay [5] and in [7] was above 100 µM in each case. The compound further returned a TGI in [8] above 100 µM.

`O=C(c1ccccc1)c1nc2ccc(Cl)cc2cc1C(Br)Br`: the TGI was found to be 0.706 µM in [1]; 0.966 µM in assay [2]; 0.879 µM in assay [3]; 1.07 µM in assay [4]; 1.41 µM in [5]; 1.18 µM in assay [6]. The TGI in [7] is 0.972 µM; in assay [8], 1.54 µM.

For `CCn1c(-c2nonc2N)nc2cnc(Oc3cccc(NC(=O)c4ccc(OCCN5CCOCC5)cc4)c3)cc21`, the GI50 is 2.16 µM in [3]; 10.3 µM in assay [4]; 0.0025 µM in [9]; 1.65 µM in assay [10]; 4.48 µM in [5]; 4.28 µM in assay [6]. Further, the GI50 in [7] was 0.724 µM; in assay [8] it was 7.09 µM. Further, the TGI in assay [3], in assay [4], in assay [9], in assay [10], in assay [5] and in assay [6] was above 25 µM each time. The TGI in assay [7] and in assay [8] was above 25 µM each time.
